Measured values: patent US20160213692A1, “ADVANCED METHOD OF TREATMENT AND MANAGEMENT OF CHRONIC HEPATITIS C INFECTION” (priority 2015, published 2016)
Marks after values point to notes of the source that are not given here. Values belong to the compound of their own block, whether it stands above or below them.

Experiments:
male Wistar rats [1] = assay: Liver and renal function parameters in serum (Cobas e411) of treated rats
Method: (§1) A total of 80 male Wistar rats weighing 250-300 gm were used. All animals received humane care during the study protocol and during sacrifice.
(§2) The study duration was 5 weeks. Peg-INF-α-2a was prepared by diluting the content of a full syringe (180 μg/0.5 ml) in 9.5 ml sterile normal saline to prepare a final volume of 10 ml and the final concentration was 18 μg/ml. Each rat in the ‘P’, ‘PD’, ‘PR’ and ‘PRD’ groups received a weekly subcutaneous injection of 0.33 ml (6 μg/rat) for a total of 4 injections. The drug was prepared fresh on the day of use. […] Cholecalciferol ([…]) was prepared by adding 4 ml to 16 ml saline every morning to form a final concentration of 1000 IU/mL. Each rat in the ‘PD’, ‘PRD’, ‘PR’ and ‘VitD’ groups received 0.5 ml/day (500 IU/day) for the full study duration. Cholecalciferol, and its dose, was chosen over calcitriol, the hormonal form of vitamin D, to avoid the risk of soft tissue calcification (Salum et al, 2012). Following 4 injections, the rats were sacrificed in the fifth week at the time of the 5th injection would have been given. RBV and vitamin D3 were continued till the day before sacrifice.
(§3) All Rats were sacrificed on the same day under anesthesia using diethyl ether (Fisher Scientific UK Ltd, Loughborough, UK) a week after the last injection. 1 ml of blood was collected on EDTA for CBC and 3 ml of blood were collected in plane tube immediately after cutting the vena cava. Blood samples in plane tubes were centrifuged and the serum was stored in −20° C. for routine biochemistry and to measure serum concentrations of 25-OH vitamin D and EPO.
The quantitative measurement of serum liver enzymes (ALP, ALT and AST), total and indirect bilirubin, creatinine and urea was done using Cobas e411 (Roche Diagnostics International Ltd, Switzerland) according to the manufacturer protocol.

[2] = male, Wistar, rat, in vivo, 5 weeks
Method: as §1, §2
All Rats were sacrificed on the same day under anesthesia using diethyl ether (Fisher Scientific UK Ltd, Loughborough, UK) a week after the last injection. […]

male Wistar rats [3] = assay: Haematological profile / erythrocyte indices (Sysmex XS 500) of treated rats
Method: as §1, §2, §3
Whole blood samples (1 ml) collected on EDTA were processed on Sysmex XS 500 (Sysmex, IL, USA) for the measurement of hemoglobin concentrations, RBCs count, packed cell volume (PCV), mean corpuscular volume (MCV), mean corpuscular hemoglobin (MCH) an mean corpuscular hemoglobin concentration (MCHC).

monkey red cells = conditions: in vitro incubation; cited from earlier work
human red cells = conditions: in vitro incubation; cited from earlier work
rat red cells = conditions: in vitro incubation; cited from earlier work
[4] = whole blood, male Wistar rats, 5 weeks
[5] = serum, male Wistar rats, 5 weeks

ALP (male Wistar rats [1]; rat, in vivo): 119 ± 9.9 IU/L
Creatinine (male Wistar rats [1]; rat, in vivo): 0.22 ± 0.03 mg/dL
Indirect Bilirubin (male Wistar rats [1]; rat, in vivo): 0.17 ± 0.07 mg/dL
Total Bilirubin (male Wistar rats [1]; rat, in vivo): 0.49 ± 0.14 mg/dL
Urea (male Wistar rats [1]; rat, in vivo): 47.3 ± 5.8 mg/dL
25-OH Vitamin D [2]: 42 ± 10^c,e ng/mL
MCH (male Wistar rats [3]; rat, in vivo): 17.6 ± 0.7 pg
MCHC (male Wistar rats [3]; rat, in vivo): 34.4 ± 0.9^c,e pg/dL
MCV (male Wistar rats [3]; rat, in vivo): 64.3 ± 4.2 fL
PCV (male Wistar rats [3]; rat, in vivo): 42.1 ± 2.7%
RBCs (male Wistar rats [3]; rat, in vivo): 7.58 ± 0.7^a,b,c,e ×10^6/μl
Hb (male Wistar rats [3]; [4]): 13.1 ± 1^a,b,c,e g/dL
SMILES: NC(=O)c1ncn([C@@H]2O[C@H](CO)[C@@H](O)[C@H]2O)n1 [R group, ribavirin]
ALT (male Wistar rats [1]; rat, in vivo): 66.1 ± 2.6 U/L
AST (male Wistar rats [1]; rat, in vivo): 78.4 ± 3.2 U/L
initial drug content retained by red cells (monkey red cells): 77%
initial drug content retained by red cells (human red cells): 45%
initial drug content retained by red cells (rat red cells): 20%

SMILES: C=C1CC[C@H](O)C/C1=C/C=C1\CCC[C@]2(C)[C@@H]([C@H](C)CCCC(C)C)CC[C@@H]12 [VitD group, cholecalciferol]
ALT (male Wistar rats [1]; [5]): 66.7 ± 4.2 U/L
AST (male Wistar rats [1]; [5]): 75.8 ± 4.2 U/L
Creatinine (male Wistar rats [1]; [5]): 0.2 ± 0.06 mg/dL
Indirect Bilirubin (male Wistar rats [1]; [5]): 0.15 ± 0.08 mg/dL
Total Bilirubin (male Wistar rats [1]; [5]): 0.51 ± 0.23 mg/dL
Urea (male Wistar rats [1]; [5]): 48.1 ± 5.2 mg/dL
ALP (male Wistar rats [1]; serum, male Wistar rats, 5 weeks, mean ± spread): 120.7 ± 12.3 IU/L
development of anemia (male Wistar rats [3]; addition of cholecalciferol 500 IU/day to Peg-INF-α and/or RBV, rats, 5 weeks): prevented the development of anemia
Hb (male Wistar rats [3]; [4]): 15.1 ± 0.7^d,f g/dL
MCH (male Wistar rats [3]; [4]): 17.4 ± 0.7 pg
MCHC (male Wistar rats [3]; [4]): 34 ± 0.8^c,e,g pg/dL
MCV (male Wistar rats [3]; [4]): 61.3 ± 1.8 fL
PCV (male Wistar rats [3]; [4]): 44.9 ± 1.8%
RBCs (male Wistar rats [3]; [4]): 8.9 ± 0.5^d,f ×10^6/μl
